In the supplement of paper PMC11208160:

Assay: recombinant barcode read abundance after kanamycin selection (control-corrected) (log10(CPM+1)); higher = more efficient recombination; sequences stand for … in AGTGCAGAGAAAATCGGCCAGTTTTCTCTGCCTGCAGTCCGCATGCCGT…AGATTTATGCAGCGGACTGCCTTTCTCCCAAAGTGATAAACCGGACAGTATCATGGACCGGTTTTCCCGGTAATCCGTATTTGCAAGGTTGGTTTCACT; site = the 11-nt target
Procedure, shortened: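 A vector carrying a T7-inducible recombinase and the last 73 bp of the bridge RNA received, by Gibson cloning, oligos encoding a promoter, target, barcode and the first 104 bridge RNA bases under J23119. The pooled constructs entered E. coli together with a donor plasmid by electroporation. Selection used chloramphenicol/ampicillin/kanamycin with 0.1 mM IPTG, with chloramphenicol/ampicillin LB agar as the control, each in two replicates. Recombination efficiency is the averaged, control-corrected counts-per-million of barcodes at recombinant junctions, reported as log10(CPM+1).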
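Also: IS621 recombinase and bridge RNA in Escherichia coli cells.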

Row | Sequence | recombinant barcode read abundance (log10)
1 | GGAGCCTCTTGGGTTCTAACCTGTTGCTC (site GGGGCCTCTCA) | 0.177
2 | GGAGCTCCTTGGGTTCTAACCTGTTGCCG (site ACTCACACTAA) | 0.152
3 | GGAGCTCCTTGGGTTCTAACCTGTTGCCG (site GGAGCTCCTCG) | 0.846
4 | GGAGGGTCTTGGGTTCTAACCTGTTGCTT (site AGAGGGTCTAA) | 0.693
5 | GGAGGGTCTTGGGTTCTAACCTGTTGCTT (site CGAGGGTCTAA) | 0.229
6 | GGAGGGTCTTGGGTTCTAACCTGTTGCTT (site GGAGGGTCTAA) | 1.72
7 | GGAGGGTCTTGGGTTCTAACCTGTTGCTT (site TGAGGGTCTAA) | 0.292
8 | GGATACACTTGGGTTCTAACCTGTTGCCG (site GGATACACTCG) | 1.66
9 | GGATACACTTGGGTTCTAACCTGTTGCCG (site TAGACGGCTAT) | 0.342
10 | GGATACACTTGGGTTCTAACCTGTTGCGT (site GGATACACTAC) | 2.76
11 | GGATACACTTGGGTTCTAACCTGTTGCGT (site GGATAGACTAC) | 0.0769
12 | GGATCCACTTGGGTTCTAACCTGTTGCCT (site AGATCCACTAG) | 0.306
13 | GGATCCACTTGGGTTCTAACCTGTTGCCT (site CGATCCACTAG) | 0.0861
14 | GGATCCACTTGGGTTCTAACCTGTTGCCT (site GGATCCACTAG) | 0.399
15 | GGATCCACTTGGGTTCTAACCTGTTGCCT (site TGATCCACTAG) | 0.139
16 | GGATCCTCTTGGGTTCTAACCTGTTGCAT (site GGATCCTCTAT) | 1.69
17 | GGATCCTCTTGGGTTCTAACCTGTTGCAT (site GGCTCCTCTAT) | 0.149
18 | GGATCTACTTGGGTTCTAACCTGTTGCCT (site GAATCTACTAG) | 0.174

Row | Sequence | recombinant barcode read abundance (log10)
19 | GGATCTACTTGGGTTCTAACCTGTTGCCT (site GCATCTACTAG) | 0.514
20 | GGATCTACTTGGGTTCTAACCTGTTGCCT (site GGATCTACTAG) | 0.235
21 | GGATCTACTTGGGTTCTAACCTGTTGCCT (site GTATCTACTAG) | 0.0262
22 | GGATTGTCTTGGGTTCTAACCTGTTGCTT (site GGATTGTCTAA) | 0.742
23 | GGATTGTCTTGGGTTCTAACCTGTTGCTT (site GGCTAGTCTAA) | 0.0862
24 | GGCACAACTTGGGTTCTAACCTGTTGCCT (site GGCACAACTAG) | 0.804
25 | GGCACAACTTGGGTTCTAACCTGTTGCCT (site GGCACCACTAG) | 0.0796
26 | GGCACAACTTGGGTTCTAACCTGTTGCCT (site GGCACGACTAG) | 0.262
27 | GGCACAACTTGGGTTCTAACCTGTTGCCT (site GGCACTACTAG) | 0.0426
28 | GGCACAGCTTGGGTTCTAACCTGTTGCCT (site GGCACAGCTAG) | 0
29 | GGCACAGCTTGGGTTCTAACCTGTTGCCT (site GGCACCGCTAG) | 0.171
30 | GGCACAGCTTGGGTTCTAACCTGTTGCCT (site GGCACGGCTAG) | 0.067
31 | GGCACAGCTTGGGTTCTAACCTGTTGCCT (site GGCACTGCTAG) | 0.0566
32 | GGCACCACTTGGGTTCTAACCTGTTGCCG (site GGCACCACTCG) | 0.295
33 | GGCACCACTTGGGTTCTAACCTGTTGCCG (site TCTTGACCTAA) | 0.251
34 | GGCACCACTTGGGTTCTAACCTGTTGCCT (site GGCACAACTAG) | 0.0402
35 | GGCACCACTTGGGTTCTAACCTGTTGCCT (site GGCACCACTAG) | 0.722
36 | GGCACCACTTGGGTTCTAACCTGTTGCCT (site GGCACGACTAG) | 0.0916
